Test results as given in ChEMBL document CHEMBL1147448, “New substituted triaza-benzo[cd]azulen-9-ones as promising phosphodiesterase-4 inhibitors” (Bioorg Med Chem Lett, 2004).

Columns and labels:
[1] = target: Phosphodiesterase 4 (Homo sapiens, UniProt P27815+Q08499+Q07343+Q08493); assay: Inhibition of phosphodiesterase 4; format: protein assay
[2] = target: Phosphodiesterase 1 (Homo sapiens, UniProt P54750+Q01064+Q14123); assay: Inhibition of Phosphodiesterase 1; format: protein assay, Cavia porcellus
[3] = target: Phosphodiesterase 3 (Homo sapiens, UniProt Q14432+Q13370); assay: Inhibition of phosphodiesterase 3; format: protein assay, Canis lupus familiaris

Row | Compound | IC50 [1] [µM] | IC50 [2] [µM] | IC50 [3] [µM]
1 | COc1cc2c3c(n1)C(c1ccccc1)=NC(NC(=O)c1cccnc1)C(=O)N3CC2 (single isomer, unassigned) | 73 | 28 | > 100
2 | COc1cc2c3c(n1)C(c1ccccc1)=N[C@@H](NC(=O)c1cccnc1)C(=O)N3CC2 | 6.1 | 14 | 12
3 | Nc1cc2c3c(c1)C(c1ccccc1)=N[C@@H](NC(=O)c1ccncc1)C(=O)N3CC2 | 0.27 | – | –
4 | COc1cc2c3c(c1)C(c1ccccc1)=NCC(=O)N3CC2 | 40 | 52 | 77
5 | COc1cc2c3c(n1)C(c1ccccc1)=NC(NC(=O)c1cccnc1)C(=O)N3CC2 (stereo in doubt) | 4.3 | 5.8 | 31
6 | COc1cc2c3c(c1)C(c1ccccc1)=N[C@@H](NC(=O)c1ccncc1)C(=O)N3CC2 | – | 16 | –
7 | COc1cc2c3c(n1)C(c1ccccc1)=NCC(=O)N3CC2 | 23 | > 100 | > 100
